Results taken from patent publication US10538516B2, “Oxadiazole derivative and pharmaceutical containing same” (National Center for Geriatrics and Gerontology, priority 2015, dated 2020).

molecular target: T1, GAβ-dependent amyloid fibril formation (Human Aβ1-40 + GM1-containing liposome) (Homo sapiens, UniProt P05067); assay: Thioflavin T (ThT) assay of GAβ-dependent amyloid fibril formation (Aβ1-40 with GM1-containing liposome); assay type: biochemical; settings: @5 μM; read-out: ThT Inhibitory activity (% inhibition)
T1 construct: Human Aβ1-40 (cat. #4307-v, prepared by Peptide Institute); purchased Peptide Institute 4307-v
Method in brief: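 Human Aβ1-40 (75 μM stock) pre-incubated 10 min at room temperature with compound (75 or 15 μM solution), then GM1-containing cholesterol/sphingomyelin liposome added and incubated 37° C, 18 hours. Fibrils quantified by ThT fluorescence (ex 430/em 490 nm, pH 8.5 glycine buffer); inhibition as ratio to compound-free control.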

T1 sequence (P05067 672-711 limits assumed): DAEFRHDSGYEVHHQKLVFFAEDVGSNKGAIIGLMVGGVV

inhibition at 5 µM [%] | Structure (SMILES)
68 | O=C(N[C@@H](CO)c1nc(-c2ccc(C(F)(F)F)cc2)no1)c1ccc(Cl)cc1 [Compound 129, (S)-4-chloro-N-(2-hydroxy-1-(3-(4-(tri-fluoromethyl)phenyl)-1,2,4-oxadiazol-5-yl)ethyl)benzamide]

same assay, conditions: @25 μM; read-out: ThT Inhibitory activity (% inhibition)

Structure (SMILES) | inhibition at 25 µM [%]
CNCC(NC(=O)c1ccc(Cl)cc1)c1nnc(-c2ccc(OC(F)(F)F)cc2)o1 (stereo not shown) [Compound 118, 4-chloro-N-(2-(methylamino)-1-(5-(4-(tri-fluoromethoxy)phenyl)-1,3,4-oxadiazol-2-yl)ethyl)benzamide] | 72
O=C(N[C@@H](CO)c1nc(-c2ccc(C(F)F)cc2)no1)c1ccc(Cl)cc1 [Compound 167] | 98

The remaining lines, values ahead:

inhibition at 25 µM [%] | Structure (SMILES)
86 | O=C(N[C@@H](CO)c1nc(-c2ccc(C(F)(F)F)cc2)no1)c1ccc(Cl)cc1 [Compound 129, (S)-4-chloro-N-(2-hydroxy-1-(3-(4-(tri-fluoromethyl)phenyl)-1,2,4-oxadiazol-5-yl)ethyl)benzamide]
55 | Cl.O=C(N[C@@H](CO)c1nc(-c2ccc(C(F)(F)F)cn2)no1)c1ccc(F)cc1 [Compound 206, 4-fluoro-N-[(1S)-2-hydroxy-1-{3-[5-(trifluoromethyl)pyridin-2-yl]-1,2,4-oxadiazol-5-yl}ethyl]benzamide hydrochloride]

same assay, conditions: final concentration of the compound 25 μM; ratio of ThT fluorescence intensity with/without compound; 37° C. for 18 hours; read-out: inhibition rate against amyloid fibril formation (inhibitory activity on a scale of A to C)

inhibition at 25 µM [%] | Structure (SMILES)
> 80 | O=C(N[C@@H](CO)c1nc(-c2ccc(C(F)(F)F)cc2)no1)c1ccc(Cl)cc1 [Compound 129, (S)-4-chloro-N-(2-hydroxy-1-(3-(4-(tri-fluoromethyl)phenyl)-1,2,4-oxadiazol-5-yl)ethyl)benzamide]

same assay, conditions: inhibition rate against amyloid fibril formation, final concentration of the compound 25 μM

Structure (SMILES) | Inhibitory activity ABC evaluation
Cl.O=C(N[C@@H](CO)c1nc(-c2ccc(C(F)(F)F)cn2)no1)c1ccc(F)cc1 [Compound 206, 4-fluoro-N-[(1S)-2-hydroxy-1-{3-[5-(trifluoromethyl)pyridin-2-yl]-1,2,4-oxadiazol-5-yl}ethyl]benzamide hydrochloride] | B (40% or more and less than 80% were evaluated as B)

same assay, conditions: inhibition rate against amyloid fibril formation, final concentration of the compound 25 μM; read-out: Inhibitory activity ABC evaluation

Structure (SMILES) | inhibition at 25 µM [%]
CNCC(NC(=O)c1ccc(Cl)cc1)c1nnc(-c2ccc(OC(F)(F)F)cc2)o1 (stereo not shown) [Compound 118, 4-chloro-N-(2-(methylamino)-1-(5-(4-(tri-fluoromethoxy)phenyl)-1,3,4-oxadiazol-2-yl)ethyl)benzamide] | 40 to 80
O=C(N[C@@H](CO)c1nnc(-c2ccc(O)c(F)c2)o1)c1ccc(Cl)cc1 [Compound 120, (S)-4-chloro-N-(1-(5-(3-fluoro-4-hydroxyphenyl)-1,3,4-oxadiazol-2-yl)-2-hydroxy-ethyl)benzamide] | < 40
NC(Cc1c[nH]cn1)c1nc(-c2ccc(OC(F)(F)F)cc2)no1 (stereo not shown) [Compound 37, 2-(1H-imidazol-4-yl)-1-[3-{4-(trifluoromethoxy)phenyl}-1,2,4-oxadiazol-5-yl]ethan-1-amine] | < 40
O=C1CC(c2nc(-c3cccc(OC(F)F)c3)no2)CN1c1ccc(Cl)cc1 (stereo not shown) [Compound 66, 1-(4-chlorophenyl)-4-[3-{3-(difluoro-methoxy)phenyl}-1,2,4-oxadiazol-5-yl]pyrrolidin-2-one] | 40 to 80
O=C(N[C@@H](CO)c1nc(-c2ccc(C(F)F)cc2)no1)c1ccc(Cl)cc1 [Compound 167] | > 80
O=C(N[C@H](CO)c1nc(-c2ccc(C(F)(F)F)cc2)no1)c1ccc(Cl)cc1 [Compound 214, 4-chloro-N-[(1R)-2-hydroxy-1-{3-[4-(trifluoromethyl)phenyl]-1,2,4-oxadiazol-5-yl}ethyl]benzamide] | 40 to 80
O=C(N[C@@H](CO)c1nc(-c2ncccn2)no1)c1ccc(F)cc1 [Compound 246, 4-fluoro-N-[(1S)-2-hydroxy-1-[3-(pyrimidin-2-yl)-1,2,4-oxadiazol-5-yl]ethyl]benzamide] | 40 to 80
O[C@@H]1C[C@@H](c2nc(-c3ccc(OC(F)(F)F)cc3)no2)N(Cc2ccc(Cl)cc2)C1 [Compound 77, (3R,5S)-1-(4-chlorobenzyl)-5-[3-{4-(trifluoro-methoxy)phenyl}-1,2,4-oxadiazol-5-yl]pyrrolidin-3-ol] | 40 to 80
O=C(N[C@@H](CO)c1nc(-c2ccc(C(F)(F)F)cc2)no1)c1ccc(N2CCOCC2)cc1 [Compound 200, N-[(1S)-2-hydroxy-1-{3-[4-(trifluoromethyl)phenyl]-1,2,4-oxadiazol-5-yl}ethyl]-4-(morpholin-4-yl) benzamide] | 40 to 80
O=C(N[C@@H](CO)c1nc(-c2ccc(C(F)(F)F)cc2)no1)c1ccc2ccccc2c1 [Compound 202, N-[(1S)-2-hydroxy-1-{3-[4-(trifluoromethyl)phenyl]-1,2,4-oxadiazol-5-yl}ethyl]naphthalene-2-carboxamide] | 40 to 80
O=C(N[C@@H](CO)c1nc(-c2ccc(-n3cccn3)cc2)no1)c1ccccc1 [Compound 180] | < 40
O=C(N[C@@H](CO)c1nc(-c2ccc(Cl)[nH]2)no1)c1ccc(F)cc1 [Compound 251, N-[(1S)-1-[3-(5-chloro-1H-pyrrol-2-yl)-1,2,4-oxadiazol-5-yl]-2-hydroxyethyl]-4-fluorobenzamide] | 40 to 80
O=C(NCC(CO)c1nc(-c2ccc(C(F)(F)F)cc2)no1)c1ccc(F)cc1 (stereo not shown) [Compound 151, 4-fluoro-N-(3-hydroxy-2-{3-[4-(trifluoro-methyl)phenyl]-1,2,4-oxadiazol-5-yl}propyl)benzamide] | 40 to 80
O=C(N[C@@H](CO)c1nc(-c2ccc(C(=O)C(F)(F)F)cc2)no1)c1ccc(F)cc1 [Compound 164, 4-fluoro-N-[(1S)-2-hydroxy-1-{3-[4-(2,2,2-trifluoroacetyl)phenyl]-1,2,4-oxadiazol-5-yl}ethyl] benzamide] | > 80

Continued, values first:

inhibition at 25 µM [%] | Structure (SMILES)
40 to 80 | O=C(c1ccc(Cl)cc1)N(CCO)[C@@H](CO)c1nc(-c2ccc(OC(F)(F)F)cc2)no1 [Compound 96, (S)-4-chloro-N-(2-hydroxy-1-{3-[4-(trifluoromethoxy)phenyl]-1,2,4-oxadiazol-5-yl}ethyl)-N-(2-hydroxyethyl)benzamide]
40 to 80 | O=C(NC(CO)c1nc(-c2ccc(C(F)(F)F)cc2)no1)c1cccc2cc[nH]c12 (stereo not shown) [Compound 184, N-(2-hydroxy-1-{3-[4-(trifluoromethyl)phenyl]-1,2,4-oxadiazol-5-yl}ethyl)-1H-indole-7-carboxamide]
40 to 80 | CCCN(C(=O)CCc1nc(-c2ccc(O)cc2)no1)c1cccc(Cl)c1 [Compound 19, N-(3-chlorophenyl)-3-{3-(4-hydroxyphenyl)-1,2,4-oxadiazol-5-yl}-N-propylpropanamide]
40 to 80 | O=C(N[C@@H](CO)c1nc(-c2cccc(C(F)(F)F)c2)no1)c1cc2ccccc2[nH]1 [Compound 223, N-[(1S)-2-hydroxy-1-{3-[3-(trifluoromethyl)phenyl]-1,2,4-oxadiazol-5-yl}ethyl]-1H-indole-2-carboxamide]
40 to 80 | COc1ccc(CN2CC(c3nc(-c4ccc(OC(F)(F)F)cc4)no3)CC2=O)cc1 (stereo not shown) [Compound 50, 1-(4-methoxybenzyl)-4-[3-{4-(trifluoro-methoxy)phenyl}-1,2,4-oxadiazol-5-yl] pyrrolidin-2-one]
40 to 80 | O=C(N[C@@H](CO)c1nc(-c2c[nH]c3ccc(C(F)(F)F)cc23)no1)c1ccc(F)cc1 [Compound 262, 4-fluoro-N-[(1S)-2-hydroxy-1-{3-[5-(trifluoromethyl)-1H-indol-3-yl]-1,2,4-oxadiazol-5-yl}ethyl] benzamide]
> 80 | O=C(N[C@@H](CO)c1nc(-c2ccc(C(F)(F)F)cc2)no1)c1ccc(Cl)cc1 [Compound 129, (S)-4-chloro-N-(2-hydroxy-1-(3-(4-(tri-fluoromethyl)phenyl)-1,2,4-oxadiazol-5-yl)ethyl)benzamide]
< 40 | CN(C(=O)c1ccc(Cl)cc1)C(C)(C)c1nc(-c2ccc(OC(F)(F)F)cc2)no1 [Compound 21, 4-chloro-N-methyl-N-(2-{3-[4-(trifluoromethoxy)phenyl]-1,2,4-oxadiazole-5-yl}propan-2-yl)benzamide]
40 to 80 | CCOCCOc1ccc(C(=O)N[C@@H](CO)c2nc(-c3ccc(OC(F)(F)F)cc3)no2)cc1 [Compound 169, 4-(2-ethoxyethoxy)-N-[(1S)-2-hydroxy-1-{3-[4-(trifluoromethoxy)phenyl]-1,2,4-oxadiazol-5-yl}ethyl] benzamide]
40 to 80 | O=C1CC(c2nc(-c3ccc(F)cc3)no2)CN1c1ccc(Cl)cc1 (stereo not shown) [Compound 61, 1-(4-chlorophenyl)-4-{3-(4-fluorophenyl)-1,2,4-oxadiazol-5-yl} pyrrolidin-2-one]
> 80 | O=C(N[C@@H](CO)c1nc(-c2ccc(C(F)(F)F)cc2)no1)c1ccc(OC(F)(F)F)cc1 [Compound 199, N-[(1S)-2-hydroxy-1-{3-[4-(trifluoromethyl)phenyl]-1,2,4-oxadiazol-5-yl}ethyl]-4-(trifluoromethoxy) benzamide]
> 80 | O=C(N[C@@H](CO)c1nc(-c2cccc(C(F)(F)F)c2)no1)c1ccc(N2CCCC2)cc1 [Compound 221, N-[(1S)-2-hydroxy-1-{3-[3-(trifluoromethyl)phenyl]-1,2,4-oxadiazol-5-yl}ethyl]-4-(pyrrolidin-1-yl) benzamide]
< 40 | O=C(Nc1ccc(Cl)cc1)NC1(c2nc(-c3ccc(OC(F)(F)F)cc3)no2)CCCC1 [Compound 36, 1-(4-chlorophenyl)-3-(1-[3-{4-(trifluoromethoxy)phenyl}-1,2,4-oxadiazol-5-yl]cyclopentyl)urea]
40 to 80 | O=C(N[C@@H](CO)c1nc(-c2ccc(-c3ccccc3)s2)no1)c1ccc(F)cc1 [Compound 248, 4-fluoro-N-[(1S)-2-hydroxy-1-[3-(5-phenylthiophen-2-yl)-1,2,4-oxadiazol-5-yl]ethyl]benzamide]
< 40 | O=C(N[C@@H](CO)c1nc(-c2ccc(Cl)o2)no1)c1ccc(F)cc1 [Compound 228, N-[(1S)-1-[3-(5-chlorofuran-2-yl)-1,2,4-oxadiazol-5-yl]-2-hydroxyethyl]-4-fluorobenzamide]
< 40 | O=C1CC(c2nc(-c3ccc(OC(F)(F)F)cc3)no2)CN1c1cncc(Cl)c1 (stereo not shown) [Compound 51, 1-(5-chloropyridin-3-yl)-4-[3-{4-(trifluoro-methoxy)phenyl}-1,2,4-oxadiazol-5-yl]pyrrolidin-2-one]
40 to 80 | O=C1CC(c2nc(-c3ccc(OC(F)F)cc3)no2)CN1c1ccc(Cl)cn1 (stereo not shown) [Compound 62, 1-(5-chloropyridin-2-yl)-4-{3-[4-(difluoromethoxy)phenyl]-1,2,4-oxadiazol-5-yl}pyrrolidin-2-one]
40 to 80 | O=C(N[C@@H](CO)c1nc(-c2cc(Cl)sc2Cl)no1)c1ccc(F)cc1 [Compound 231, N-[(1S)-1-[3-(2,5-dichlorothiophen-3-yl)-1,2,4-oxadiazol-5-yl]-2-hydroxyethyl]-4-fluorobenzamide]
40 to 80 | O=C(N[C@@H](CO)c1nc(-c2c[nH]c3ccc(Br)cc23)no1)c1ccc(F)cc1 [Compound 247, N-[(1S)-1-[3-(5-bromo-1H-indol-3-yl)-1,2,4-oxadiazol-5-yl]-2-hydroxyethyl]-4-fluorobenzamide]
